Here are results for two compounds from paper PMC4541410 (Scientific Reports, 2015).

Data set [1] deals with HIV-1Bal (subtype B, R5). The conditions noted are these: read-out: IC50, inhibition of infection by HIV-1Bal; M7 cells, 100 TCID50, p24 ELISA day 7; triplicate, repeated twice. From the text:
(§1) Then, the culture supernatants were changed to fresh media. On the fourth day post-infection, culture supernatants were collected for detection of p24 antigen by ELISA. […] Then, the culture supernatants were changed to fresh media. On the fourth day post-infection, the culture supernatants were discarded and fresh media were complemented again. The supernatants were collected on the seventh day post-infection and tested for p24 antigen by ELISA as previously described. The percent inhibition of p24 production was calculated.
(In general: In an ELISA, binding on a coated surface is turned into a signal by an enzyme label.)

Data set [2] deals with HIV-1IIIB (subtype B, X4). Conditions: read-out: IC50, inhibition of infection by HIV-1IIIB; MT-2 cells, 100 TCID50, p24 ELISA day 4; triplicate, repeated twice.
Text: as §1

Data set [3] concerns 92UG024 (D). The data set is classed as cell-based. Conditions: primary HIV-1 isolate, subtype D; read-out: IC50 (nM), infection by primary isolate 92UG024 (D).
In data set [4] the test system is NP1525 (A/E). Format: cell-based. Conditions: primary HIV-1 isolate, subtype A/E; read-out: IC50 (nM), infection by primary isolate NP1525 (A/E).
Data set [5] has as its system 93BR020 (F). The data set is classed as cell-based. Conditions: primary HIV-1 isolate, subtype F; read-out: IC50 (nM), infection by primary isolate 93BR020 (F).
Data set [6] relates to T20-resistant HIV-1 variant V38A. Format: cell-based.
Data set [7] relates to T20-resistant HIV-1 variant V38A/N42D. Format: cell-based.
For data set [8], the system named is T20-resistant HIV-1 variant N42T/N43K. Format: cell-based.
For data set [9], the system named is T20-resistant HIV-1 variant V38E/N42S. Format: cell-based.
In data set [10] the test system is T20-resistant HIV-1 variant V38A/N42T. Format: cell-based.
Data set [11] relates to HIV-1IIIB (subtype B, X4). Kind of data set: Inhibition of HIV-1 IIIB infection by peptides in the presence of sera from HIV-1-infected patients. The data set is classed as cell-based. The conditions noted are these: for IC50: MT-2 cells, triplicate, mean ± SD. On the procedure: Inhibition of peptides on HIV-1IIIB (subtype B, X4)infection in the presence of HIV-1-infected patients’ sera was determined as previously described. Briefly, each peptide was mixed with serially diluted serum from an HIV-1-infected patient at room temperature for 30 min. Next, the mixture of peptide/serum and HIV-1 (100 TCID50) were added to MT-2 cells (1 × 10^5/ml) in RPMI 1640 medium containing 10% FBS. After incubation at 37 °C overnight, the culture supernatants were replaced with fresh culture medium.

In data set [12] the test system is preexisting antibodies in sera from HIV-1-infected patients. Kind of data set: Sandwich ELISA: cross-reactivity of peptides with preexisting antibodies in HIV-1-infected patients. Format: binding, human. The conditions noted are these: peptide coated at 10 μg/ml, serially diluted sera, 37 °C 1 h, A450. How it is done: A sandwich ELISA was conducted to determine the cross-reactivity of the peptides with the preexisting antibodies in HIV-1-infected patients. […] The wells were then blocked with 1% gelatin, followed by addition of 50 μl of serially diluted sera from HIV-1-infected patients and incubation at 37 °C for 1 h. Then, HRP-labeled goat-anti-human IgG (Abcam, UK) and TMB were added sequentially. A450 was determined with an ELISA reader (Ultra 384, Tecan).

Data set [13] concerns the target T1, N36 (gp41 NHR peptide) (Human immunodeficiency virus type 1 group M subtype B, UniProt P04578).
T1 construct: gp41 NHR (“N36”, 546-581); made in house; host or cells: chemical solid-phase FMOC synthesis
Kind of data set: CD spectroscopy and thermal midpoint analysis of peptide/N36 complexes. Format: physicochemical, HIV-1. On the procedure: Briefly, each peptide or peptide mixture was dissolved in phosphate-buffered saline (PBS: 50 mM sodium phosphate and 150 mM NaCl, pH 7.2) at the final concentration of 10 μM and incubated at 37 °C for 30 min before cooling down to 4 °C. The CD spectra of each sample were acquired on a Jasco spectropolarimeter (Model J-815, Jasco Inc., Japan) at 4 °C using a 5 nm bandwidth, 0.1 nm resolution, 0.1 cm path length and an average time of 5.0 sec. Spectra were corrected by the subtraction of a blank corresponding to the solvent composition of each sample. Thermal midpoint analysis was used to determine the temperature at which 50% of the 6-HB formed by the CHR and NHR would decompose. It was monitored at 222 nm from 4 °C to 98 °C by applying a thermal gradient of 5 °C/min. The melting curve was smoothed and the midpoint of the thermal unfolding transition (Tm) values was calculated using Jasco software utilities as described above.

Data set [14] relates to 92UG029 (A). The conditions noted are these: read-out: IC50 (nM), infection by primary isolate 92UG029 (A); primary HIV-1 isolate, subtype A.
The subject of data set [15] is 94US_33931N (B). The conditions noted are these: read-out: IC50 (nM), infection by primary isolate 94US_33931N (B); primary HIV-1 isolate, subtype B.
Data set [16] concerns 93IN101 (C). Conditions: read-out: IC50 (nM), infection by primary isolate 93IN101 (C); primary HIV-1 isolate, subtype C.
Data set [17] deals with 92TH009 (A/E). The conditions noted are these: read-out: IC50 (nM), infection by primary isolate 92TH009 (A/E); primary HIV-1 isolate, subtype A/E.
The test system of data set [18] is BCF020 (Group O). Conditions: read-out: IC50 (nM), infection by primary isolate BCF020 (Group O), primary HIV-1 isolate.
For data set [19] the following is noted: intravenous 1 mg/kg, male SD rats, n = 2; plasma by sandwich ELISA; PK Solver.
Description: (§2) Four male SD rats weighing approximately 200 g each were obtained from the Shanghai Medical School Animal Center and were used for the half-life assay. […] After injection, blood samples were acquired from rat orbit at several time points (8 and 30 min and 1.5, 3, 6, 9, 12 and 24 h after peptide injection) and placed in clean tubes. […] Then, HRP-labeled rabbit-anti-mouse IgG (Sigma, USA) and TMB were added in order. Absorbance at 450 nm was determined by an ELISA reader (Ultra 384, Tecan). The standard peptide parameters were obtained first. Then, the plasma peptide concentrations were determined as a function of time and the half-life was calculated by using PK Solver for Microsoft Excel to obtain pharmacokinetic parameters.
Data set [20] can be described thus: in vivo. The conditions noted are these: male, Sprague-Dawley (SD), rat, plasma, iv, 1 mg/kg.
Description: as §2
The subject of data set [21] is proteinase K. Kind of data set: in vitro. The conditions noted are these: proteinase K in PBS, pH 7.2. On the procedure: Chromatographic analyses were performed using an ODS-C8 column (5 μm, 100 mm × 2.0 mm ID) kept at ambient temperature. The mobile phase was composed of acetonitrile-water-formic acid in the ratio of 50:50:0.1 (v/v/v) at a flow rate of 0.3 mL/min. The sample injection volume was 10 μL. Acetonitrile was HPLC grade and other chemical reagents and solvents were analytical grade. A Thermo TSQ Quantum Discovery MAX triple-quadruple tandem mass spectrometer equipped with ESI source (San Jose, CA) and Surveyor LC pump were used for LC-MS analysis. Data acquisition and data processing were performed by using Xcalibur software and LCQuan 2.0 data analysis program (Thermo Finnigan), respectively. Optimized MS parameters were as below: 4800 V spray voltage, 40.0 psi sheath gas pressure, 1.0 psi auxiliary valve flow and 300 °C of capillary temperature. When running collision-induced dissociation (CID), the pressure was set to 1.5 mTorr.
The peptides (10 μg/mL) were prepared in PBS pH 7.2 containing 20 ng/ml proteinase K. The resulting mixture were incubated at 37 °C in a water bath and taken out at different time intervals (0, 5, 15, 30, 60, 120 minutes), followed by quenching the samples with ethyl alcohol and quantitating the peptides by LC-MS analysis as described above.

The conditions of data set [22]: cited from earlier work.
For data set [23] the following is noted: subcutaneously twice daily at 90 mg per dose; cited from earlier work.

Like-named read-outs stand apart in the source and are kept apart here. Where a SMILES comes first, the peptide text is derived from it.

T1 sequence (P04578 546-581): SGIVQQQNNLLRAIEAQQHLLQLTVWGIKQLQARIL

Regarding `CC[C@H](C)[C@H](NC(=O)[C@H](CO)NC(=O)[C@H](CCC(=O)O)NC(=O)[C@H](CCC(=O)O)NC(=O)[C@H](CCC(N)=O)NC(=O)[C@H](CCCCN)NC(=O)[C@H](CCCCN)NC(=O)[C@@H](NC(=O)[C@H](CCC(N)=O)NC(=O)[C@H](CCC(=O)O)NC(=O)[C@H](CCC(=O)O)NC(=O)[C@@H](NC(=O)[C@H](CCCCN)NC(=O)[C@H](CCCCN)NC(=O)[C@@H](NC(=O)[C@H](CC(C)C)NC(=O)[C@H](CCC(=O)O)NC(=O)[C@H](CCC(=O)O)NC(=O)[C@H](CO)NC(=O)[C@H](CCCCN)NC(=O)[C@H](CCCCN)NC(=O)[C@@H](NC(=O)[C@H](CC(C)C)NC(=O)[C@H](CCC(=O)O)NC(=O)[C@H](CCC(=O)O)NC(=O)[C@@H](NC(=O)[C@H](CCCCN)NC(=O)[C@H](CCCCN)NC(=O)[C@H](CC(=O)O)NC(=O)[C@H](Cc1c[nH]c2ccccc12)NC(=O)[C@H](CCC(=O)O)NC(=O)[C@H](CCC(=O)O)NC(=O)[C@H](Cc1c[nH]c2ccccc12)NC(C)=O)[C@@H](C)CC)[C@@H](C)CC)[C@@H](C)CC)[C@@H](C)CC)[C@@H](C)CC)C(=O)N[C@@H](CCCCN)C(=O)N[C@@H](CCCCN)C(N)=O` [AP2] (Ac-WEEWDKKIEELIKKSEELIKKIEEQIKKQEESIKK-NH2), the IC50 turned out to be 50 nM in data set [1]; 23.1 nM in data set [2]; 34.5 ± 2.3 nM in [3]; 65.6 ± 10.9 nM in data set [4]; 42.7 ± 1.4 nM in data set [5]; 41.4 ± 8.65 nM in data set [6]. In addition, the IC50 stood at 63.5 ± 6.37 nM in data set [7]; 72.7 ± 7.53 nM in data set [8]; 87.4 ± 5.26 nM in data set [9]; 262 ± 5.63 nM in data set [10]; 24.3 ± 10.2 nM in data set [11] (in presence of serum of HIV-1-infected patient HPS-1, read-out: IC50 (nM), HIV-1 IIIB infection, HPS-1); 30.3 ± 4.2 nM in [11] (in presence of serum of HIV-1-infected patient HPS-2, read-out: IC50 (nM), HIV-1 IIIB infection, HPS-2). For the same compound, the IC50 amounted to 78.3 ± 8.6 nM in data set [11] (in presence of serum of HIV-1-infected patient HPS-3, read-out: IC50 (nM), HIV-1 IIIB infection, HPS-3); 35.1 ± 2.3 nM in data set [11] (in presence of serum of HIV-1-infected patient HPS-4, read-out: IC50 (nM), HIV-1 IIIB infection, HPS-4); 69.3 ± 3.2 nM in data set [11] (in presence of serum of HIV-1-infected patient HPS-5, read-out: IC50 (nM), HIV-1 IIIB infection, HPS-5); 39.9 ± 4.2 nM in data set [14]; 38 ± 12.5 nM in data set [15]; 35.6 ± 0.9 nM in data set [16]. For the same compound, the IC50 in [17] was found to be 50 ± 4.5 nM; in data set [18] it was 47.1 ± 2.1 nM. Besides, the “Fold change of IC50, HPS-1” value in [11] (HPS-1 relative to N) is given as 0.5. Besides, the “Fold change of IC50, HPS-2” value in data set [11] (HPS-2 relative to N) is recorded as 0.7. Moreover, the “Fold change of IC50, HPS-3” value in data set [11] (HPS-3 relative to N) is 1.7. In addition, in data set [11] (HPS-4 relative to N), the “Fold change of IC50, HPS-4” value was determined as 0.8. Besides, the “Fold change of IC50, HPS-5” value in data set [11] (HPS-5 relative to N) was determined as 1.5. The “reactivity with antibodies in sera from five HIV-1-infected patients” value in data set [12] is “none of the three artificial peptides AP1, AP2 and AP3 was recognized”. In addition, the “Tm of complex with N36” value in data set [13] (CD thermal denaturation at 222 nm, 4 to 98 °C, 5 °C/min, 10 μM in PBS pH 7.2) is recorded as 82.3 ^oC. For the same compound, the “α-helix content of complex with N36” value in [13] (CD, peptide/N36 mixture 10 μM in PBS pH 7.2, 4 °C) worked out at 69.51%. The compound also showed a Cmax in [19] of 667.43 µg/mL. In data set [20], this compound came in with an MRT of 7.57 h. This compound also gave a half-life in data set [20] of 315 min.

For the compound enfuvirtide, the fraction remaining at 2 h, 10 μg/mL in data set [21] was found to be 29%. In data set [19], the Cmax came to 314.80 µg/mL. Moreover, in data set [20], the mean residence time (MRT) was 2.27 h and the half-life was 94.2 min. Besides, the half-life in plasma result in data set [22] was “about 2 h”. Moreover, the injection-site reactions entry in data set [23] is “often causing serious injection-site reactions”.

As usually defined, the Cmax is the highest concentration seen after dosing. Usually MRT stands for a mean duration of stay, worked out from the concentration-time curve. The term half-life denotes the time in which the quantity being followed falls by half. Read a high half-life as slow decline. The share remaining is what is left of the initial amount, in per cent. Lower therefore signals more turnover.
